Reference: patent publication US20240383900A1, “SUBSTITUTED PYRAZOLO [1,5-A]PYRIMIDINE-7-AMINE COMPOUNDS AS CDK INHIBITORS AND THEIR THERAPEUTIC USE” (Carrick Therapeutics Limited, priority 2021, published 2024)
Where two headings read alike, the source gives them in different places.

What was measured:
[1] = tested on: A673 cells; experiment: A673 cytotoxic potency shift in the presence of MLN4924 (cyclin K degrader activity); type: cell-based; settings: 30 nM MLN4924, 72 hours
Method: Inhibition of cell viability by test compounds was assessed in A673 cells (ATCC CRL-1598) and the compound mode of action was attributed to a “molecular-glue”/cyclin K-degradation mechanism by probing for a loss of compound potency in the presence of the NEDD8-activating enzyme inhibitor, MLN4924.
Cells were plated in 96-well plates at a density of […] viable cells per well in 200 μL fully supplemented growth medium (DMEM+10% heat inactivated foetal bovine serum) and incubated for 24 hours in standard tissue culture conditions. Compounds, including MLN4924, were solubilised in DMSO and then diluted in fully supplemented growth medium at 2× their final assay concentration such that the final DMSO concentration was 0.1%. Growth medium in the assay plates was replaced with 50 μL of growth medium containing 2×MLN4924 (final assay concentration: 30 nM, where tested) or vehicle only and 50 μL of growth medium containing a 2× compound concentration series or vehicle only such that each compound was at 1× final assay concentration in 100 μL.
Cells were then incubated for 72 hours in standard tissue culture conditions before viability was assessed using 50 μL Cell Titer Glo reagent (Promega) per well and luminescence measured on an EnVision plate reader. Data were normalised to vehicle control (100%) and cells treated with 0.1% Triton x-100 for 1 hour before viability measurement (0%; full cell kill). IC50 values were determined using a semi-logistic curve fit with parameters “top” fixed at 100% and “bottom” at or below 0%. Viability curves generated in the presence of MLN4924 were normalised and fixed to controls treated with MLN4924.

[2] = tested on: A673 cells; experiment: Cytotoxicity in A673 cells (Cell Titer Glo viability); type: cell-based; settings: for Ratio of Biochemical Potency:Cellular Potency: CDK12 IC50 / A673 IC50; for IC50: Homo sapiens
Summary of the method: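 Cells plated at 1.2×10^5 per well in DMEM+10% FBS, 24 h, then compound series ± MLN4924 (30 nM final) in 0.1% DMSO for 72 h. Viability by Cell Titer Glo luminescence, normalised to vehicle (100%) and 0.1% Triton x-100 (0%); MLN4924 curves normalised to MLN4924-treated controls.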

[3] = molecular target: Human CDK12 wt/CycK (Homo sapiens (Human), UniProt Q9NYV4); experiment: Radiometric protein kinase assay (33PanQinase Activity Assay), CDK12; type: biochemical; settings: for CDK7/CDK12: ratio of CDK7 IC50 to CDK12 IC50, greater than 1 indicates selectivity for CDK12
Sequence of Human CDK12 wt/CycK (Q9NYV4 whole entry): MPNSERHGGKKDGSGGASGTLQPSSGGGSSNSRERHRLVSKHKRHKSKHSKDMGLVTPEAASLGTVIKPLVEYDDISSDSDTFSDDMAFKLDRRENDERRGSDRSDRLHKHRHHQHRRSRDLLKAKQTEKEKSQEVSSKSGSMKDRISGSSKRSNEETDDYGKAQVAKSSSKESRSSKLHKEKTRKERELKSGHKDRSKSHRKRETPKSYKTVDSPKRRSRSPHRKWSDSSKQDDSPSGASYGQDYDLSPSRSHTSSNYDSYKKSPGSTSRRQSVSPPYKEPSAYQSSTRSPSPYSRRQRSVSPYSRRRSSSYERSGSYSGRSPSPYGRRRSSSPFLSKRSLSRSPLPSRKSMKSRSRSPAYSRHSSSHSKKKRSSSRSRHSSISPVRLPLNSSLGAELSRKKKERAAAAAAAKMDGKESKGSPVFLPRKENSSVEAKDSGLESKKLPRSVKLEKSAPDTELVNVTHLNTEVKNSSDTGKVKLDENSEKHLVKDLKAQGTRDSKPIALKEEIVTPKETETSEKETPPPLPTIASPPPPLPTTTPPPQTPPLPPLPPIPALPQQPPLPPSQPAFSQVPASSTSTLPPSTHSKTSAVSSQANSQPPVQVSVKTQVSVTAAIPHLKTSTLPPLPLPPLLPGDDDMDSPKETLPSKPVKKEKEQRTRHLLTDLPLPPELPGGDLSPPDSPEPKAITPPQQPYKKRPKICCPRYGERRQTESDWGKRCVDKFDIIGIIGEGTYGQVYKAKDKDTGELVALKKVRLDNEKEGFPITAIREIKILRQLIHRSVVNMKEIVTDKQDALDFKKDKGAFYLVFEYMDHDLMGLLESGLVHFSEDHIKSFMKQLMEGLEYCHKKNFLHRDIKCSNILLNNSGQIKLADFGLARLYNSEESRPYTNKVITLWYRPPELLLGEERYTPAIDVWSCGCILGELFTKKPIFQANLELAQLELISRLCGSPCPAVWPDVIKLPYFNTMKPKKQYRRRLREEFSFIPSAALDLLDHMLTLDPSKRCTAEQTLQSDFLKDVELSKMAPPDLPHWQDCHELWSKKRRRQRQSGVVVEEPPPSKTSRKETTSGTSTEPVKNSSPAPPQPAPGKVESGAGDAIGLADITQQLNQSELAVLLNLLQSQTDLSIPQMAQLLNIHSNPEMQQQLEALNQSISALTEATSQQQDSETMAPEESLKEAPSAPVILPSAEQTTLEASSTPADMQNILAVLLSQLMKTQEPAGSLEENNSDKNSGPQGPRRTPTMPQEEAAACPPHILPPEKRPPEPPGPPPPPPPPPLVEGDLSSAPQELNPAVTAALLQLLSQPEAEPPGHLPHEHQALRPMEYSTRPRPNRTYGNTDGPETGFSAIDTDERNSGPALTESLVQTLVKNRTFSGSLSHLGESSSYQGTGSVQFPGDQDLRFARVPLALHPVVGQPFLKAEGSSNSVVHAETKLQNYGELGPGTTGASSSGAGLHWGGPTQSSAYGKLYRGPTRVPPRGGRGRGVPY
Sequence of Human CDK12 wt/CycK (O75909 whole entry partner): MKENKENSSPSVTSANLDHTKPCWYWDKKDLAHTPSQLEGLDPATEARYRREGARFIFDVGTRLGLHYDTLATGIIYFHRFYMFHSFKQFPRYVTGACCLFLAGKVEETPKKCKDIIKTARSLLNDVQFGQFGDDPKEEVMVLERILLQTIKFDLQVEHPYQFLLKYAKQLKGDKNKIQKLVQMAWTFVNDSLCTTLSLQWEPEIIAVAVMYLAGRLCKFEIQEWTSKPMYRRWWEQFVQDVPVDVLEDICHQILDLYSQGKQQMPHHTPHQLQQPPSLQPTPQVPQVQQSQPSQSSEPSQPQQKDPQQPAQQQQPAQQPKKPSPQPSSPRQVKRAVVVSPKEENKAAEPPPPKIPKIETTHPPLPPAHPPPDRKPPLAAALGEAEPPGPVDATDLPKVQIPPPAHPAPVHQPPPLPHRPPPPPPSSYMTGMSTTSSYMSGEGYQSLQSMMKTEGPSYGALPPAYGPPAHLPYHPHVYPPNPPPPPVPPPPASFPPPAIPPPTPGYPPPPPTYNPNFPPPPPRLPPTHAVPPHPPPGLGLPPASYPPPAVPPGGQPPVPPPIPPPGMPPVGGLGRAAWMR
Summary of the method: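 Radiometric 33P assay: ATP, test compound (in 10% DMSO) and premixed substrate/enzyme incubated 60 min at 30 °C, stopped with 2% H3PO4. 33Pi incorporation counted by scintillation; least-squares curve fit.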

[4] = molecular target: Human CDK7/CycH/MAT1 (Homo sapiens (Human), UniProt P50613); experiment: Radiometric protein kinase assay (33PanQinase Activity Assay), CDK7; type: biochemical; settings: ATP 3 μM
Sequence of Human CDK7/CycH/MAT1 (P50613 whole entry): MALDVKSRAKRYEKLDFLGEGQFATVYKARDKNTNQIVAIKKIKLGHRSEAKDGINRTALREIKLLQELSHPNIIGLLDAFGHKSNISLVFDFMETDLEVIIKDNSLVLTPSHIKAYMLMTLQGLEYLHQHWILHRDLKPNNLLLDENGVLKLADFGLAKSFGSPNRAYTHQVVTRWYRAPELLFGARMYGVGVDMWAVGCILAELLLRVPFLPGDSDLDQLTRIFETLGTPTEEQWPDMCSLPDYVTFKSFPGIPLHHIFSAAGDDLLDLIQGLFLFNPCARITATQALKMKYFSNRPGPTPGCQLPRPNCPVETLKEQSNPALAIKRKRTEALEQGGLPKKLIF
Sequence of Human CDK7/CycH/MAT1 (P51946 whole entry partner): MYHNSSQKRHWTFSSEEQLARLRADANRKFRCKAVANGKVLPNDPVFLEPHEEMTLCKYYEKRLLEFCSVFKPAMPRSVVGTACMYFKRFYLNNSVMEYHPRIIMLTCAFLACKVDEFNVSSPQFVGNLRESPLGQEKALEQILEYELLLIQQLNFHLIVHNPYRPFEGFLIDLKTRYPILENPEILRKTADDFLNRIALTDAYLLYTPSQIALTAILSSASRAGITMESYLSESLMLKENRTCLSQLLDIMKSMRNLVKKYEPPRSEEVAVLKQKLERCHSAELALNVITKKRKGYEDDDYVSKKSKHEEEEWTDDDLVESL
Sequence of Human CDK7/CycH/MAT1 (P51948 whole entry partner): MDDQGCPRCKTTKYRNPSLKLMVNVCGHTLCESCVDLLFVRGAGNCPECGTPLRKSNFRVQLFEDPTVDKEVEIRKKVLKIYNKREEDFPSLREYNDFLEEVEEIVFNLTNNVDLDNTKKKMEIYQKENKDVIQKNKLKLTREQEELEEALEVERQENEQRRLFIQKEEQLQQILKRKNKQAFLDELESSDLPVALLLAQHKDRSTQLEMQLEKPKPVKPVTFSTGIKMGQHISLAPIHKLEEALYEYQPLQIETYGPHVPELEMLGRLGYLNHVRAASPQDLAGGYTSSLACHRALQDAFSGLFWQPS

[5] = A673, read-out: Cellular Potency IC50 (nM) (in A673 cells)
[6] = A673 cells, 72 hours, read-out: A673 IC50
[7] = ATP 0.3 μM, read-out: CDK12 IC50
[8] = read-out: CKD12 Biochemical Potency IC50

| IC50 [3, 7] | CDK7/CDK12 [3] | IC50 [3, 8] | IC50 [4] | SMILES | Cyclin K Degrader Activity (A673 potency shift + MLN4924) [1] | Ratio of Biochemical Potency:Cellular Potency [2] | IC50 [2, 5] | IC50 [2, 6] |
| --- | --- | --- | --- | --- | --- | --- | --- | --- |
| 503 nM | 3.2 | 503 nM | 1630 nM | CO[C@H]1CNCC[C@@H]1CNc1cc(NCc2ccc(-c3ccccn3)cc2)n2ncc(C3CC3)c2n1 [PPA-087] | +++ (>5 fold change.) | 57.82 | 8.7 nM | 8.7 nM |
| 31 nM | 7.2 | 31 nM | 222 nM | Clc1cnn2c(NCc3ccc(-c4ccccn4)cc3)cc(N[C@H]3CCCNC3)nc12 [PPA-093] | ++ (>2 and ≤5 fold change.) | 9.69 | 3.2 nM | 1.7 nM |
| 23 nM | 29.3 | 23 nM | 675 nM | N#Cc1cnn2c(NCc3ccc(-c4ccccc4)cc3)cc(N[C@H]3CCNC3)nc12 [PPA-085] | ++ (>2 and ≤5 fold change.) | 17.69 | 1.3 nM | 1.3 nM |
| 99 nM | 3.1 | 99 nM | 311 nM | O[C@H]1CNCC[C@@H]1CNc1cc(NCc2ccc(-c3ccccn3)cc2F)n2ncc(C3CC3)c2n1 [PPA-020] | +++ (>5 fold change.) | 30.00 | 3.3 nM | 3.3 nM |
| 382 nM | 8.0 | 382 nM | 3070 nM | c1cnn(-c2ccc(CNc3cc(N[C@H]4CCNC4)nc4c(C5CC5)cnn34)cc2)c1 [PPA-091] | +++ (>5 fold change.) | 50.26 | 7.6 nM | 10.3 nM |
| 51 nM | 6.6 | 51 nM | 338 nM | c1ccc(-c2ccc(CNc3cc(N[C@H]4CCCNC4)nc4c(C5CC5)cnn34)cc2)nc1 [PPA-044] | +++ (>5 fold change.) | 18.89 | 2.7 nM | 2.7 nM |
| 31 nM | 28.8 | 31 nM | 892 nM | c1ccc(-c2ccc(CNc3cc(NC4CNC4)nc4c(C5CC5)cnn34)cc2)nc1 [PPA-047] | ++ (>2 and ≤5 fold change.) | 1.79 | 17.3 nM | 17.3 nM |
| 143 nM | 4.0 | 143 nM | 576 nM | CC(C)c1cnn2c(NCc3ccc(-c4ccccc4)cc3)cc(NC[C@H]3CCNC[C@@H]3O)nc12 [PPA-004, (3R,4R)-4-(((7-(([1,1′-biphenyl]-4-ylmethyl)amino)-3-isopropylpyrazolo[1,5-a]pyrimidin-5-yl)amino)methyl)piperidin-3-ol] | +++ (>5 fold change.) | 22.70 | 6.3 nM | 6.3 nM |
| 29 nM | 9.8 | 29 nM | 284 nM | c1ccc(-c2ccc(CNc3cc(O[C@H]4CCNC4)nc4c(C5CC5)cnn34)cc2)nc1 [PPA-065] | +++ (>5 fold change.) | 9.06 | 3.2 nM | 3.2 nM |

The remaining lines, values behind:

| SMILES | IC50 [3, 7] | CDK7/CDK12 [3] | IC50 [3, 8] | IC50 [4] | Cyclin K Degrader Activity (A673 potency shift + MLN4924) [1] | Ratio of Biochemical Potency:Cellular Potency [2] | IC50 [2, 5] | IC50 [2, 6] |
| --- | --- | --- | --- | --- | --- | --- | --- | --- |
| c1cnc(-c2ccc(CNc3cc(N[C@H]4CCCNC4)nc4c(C5CC5)cnn34)cc2)nc1 [PPA-089] | 28 nM | 9.8 | 28 nM | 274 nM | +++ (>5 fold change.) | 14.74 | 1.9 nM | 3.4 nM |
| c1ccc(-c2ccc(CNc3cc(O[C@@H]4CCNC4)nc4c(C5CC5)cnn34)cc2)nc1 [PPA-060] | 77 nM | 37.3 | 77 nM | 2870 nM | +++ (>5 fold change.) | 26.55 | 2.9 nM | 2.9 nM |
| c1ccc(-c2ccc(CNc3cc(O[C@H]4CCCNC4)nc4c(C5CC5)cnn34)cc2)nc1 [PPA-064] | 18 nM | 14.9 | 18 nM | 268 nM | +++ (>5 fold change.) | 15.00 | 1.2 nM | 1.2 nM |
| O[C@H]1CNCC[C@@H]1CNc1cc(NCc2ccc(-c3ccccc3)cc2)n2ncc(C3CC3)c2n1 [PPA-059] | 158 nM | 4.0 | 158 nM | 637 nM | +++ (>5 fold change.) | 12.54 | 12.6 nM | 12.6 nM |
| Fc1cc(-c2ccccn2)ccc1CNc1cc(N[C@H]2CCNC2)nc2c(C3CC3)cnn12 [PPA-072] | 34 nM | 29.4 | 34 nM | 1000 nM | +++ (>5 fold change.) | 42.50 | 0.8 nM | 0.8 nM |
| c1cnc(-c2ccc(CNc3cc(N[C@H]4CCNC4)nc4c(C5CC5)cnn34)cc2)nc1 [PPA-090] | 23 nM | 18.2 | 23 nM | 418 nM | +++ (>5 fold change.) | 4.89 | 4.7 nM | 5.2 nM |
| c1ccc(-c2ccc(CNc3cc(N4CC5CC(C4)N5)nc4c(C5CC5)cnn34)cc2)nc1 [PPA-080] | 152 nM | 8.0 | 152 nM | 1210 nM | +++ (>5 fold change.) | 12.06 | 12.6 nM | 12.6 nM |
| c1ccc(-c2ccc(CNc3cc(OC4CNC4)nc4c(C5CC5)cnn34)cc2)nc1 [PPA-049] | 32 nM | 30.7 | 32 nM | 982 nM | +++ (>5 fold change.) | 4.64 | 6.9 nM | 6.9 nM |
